Test results reported in US20150119363A1, “METHODS OF TREATING BACTERIAL INFECTIONS” (Rampex Pharmaceuticals, Inc., priority 2012, published 2015).

Tests used:
[1] = system: Acinetobacter baumannii AB1054 (OXA-23); experiment: Checkerboard assay, biapenem potentiation (MPC8); format: cell-based; conditions: concentration to reduce biapenem MIC 8-fold
Experimental: (§1) The potency and spectrum of β-lactamase inhibitors was determined by assessing their antibiotic potentiation activity.
(§2) The potentiation effect is observed by the reduction of the minimum inhibitory concentration of β-lactam antibiotics in the presence of β-lactamase inhibitors (BLIs). […] Methods for Dilution of Antimicrobial Susceptibility Tests for Bacteria That Grow Aerobically—Eighth Edition; Approved Standard. CLSI Document M07-A8, 2009). In this assay, multiple dilutions of two drugs, namely BLI and β-lactam (biapenem), are being tested, alone and in combination, at concentrations equal to, above and below their respective minimal inhibitory concentrations (MICs). BLIs are solubilized in 10% DMSO at 10 mg/mL. Stock solutions are further diluted, according to the needs of a particular assay, in Mueller Hinton Broth (MHB). Stock solution can be stored at −80° C.
(§3) The checkerboard (CB) assay is performed in microtiter plates. Biapenem is diluted in the x axis, each column containing a single concentration of antibiotic. BLIs are diluted in the y axis, each row containing an equal concentration of BLI. The result of these manipulations is that each well of the microtiter plate contains a unique combination of concentrations of the two agents. The assay is performed in MHB with a final bacterial inoculum of 5×10^5 CFU/mL (from an early-log phase culture). Microtiter plates are incubated during 20 h at 35° C. and are read using a microtiter plate reader (Molecular Devices) at 650 nm as well as visual observation using a microtiter plate reading mirror.
(§4) Biapenem is a carbapenem β-lactam; only selected β-lactamases confer resistance to this class of antibiotics. Among them are serine carbapemenases that belong to class A and class D. Biapenem potentiation is studied in strains expressing various carbapenemases from these classes using CB assays. […] Cyclic boronic acid derivatives were capable of reducing biapenem MICs up to 1000-fold (Table 3).

[2] = system: Acinetobacter baumannii AB1057 (OXA-58); experiment: Checkerboard assay, biapenem potentiation (MPC8); format: cell-based; conditions: concentration to reduce biapenem MIC 8-fold
Experimental: as §1, §2, §3, §4

[3] = system: Klebsiella pneumoniae KP1004 (KPC-2); experiment: Checkerboard assay, biapenem potentiation (MPC8); format: cell-based; conditions: concentration to reduce biapenem MIC 8-fold
Experimental: as §1, §2, §3, §4

KP1004 KPC-2 = experiment: Dose titration biapenem potentiation assay (MPC1); format: cell-based, Klebsiella pneumoniae; conditions: biapenem 1 μg/mL
KP1008 KPC-2 = experiment: Dose titration biapenem potentiation assay (MPC1); format: cell-based, Klebsiella pneumoniae; conditions: biapenem 1 μg/mL
EC1007 KPC-3 = experiment: Dose titration biapenem potentiation assay (MPC1); format: cell-based, Escherichia coli; conditions: biapenem 1 μg/mL
Outline: (§5)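 Growth of carbapenemase-expressing strains measured with biapenem held at a sub-inhibitory 1 μg/mL; BLI compounds titrated from a top concentration of 40 μg/mL. MPC1 is the inhibitor concentration that restores growth inhibition by biapenem.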

ECL1004 NMC-A = experiment: Dose titration biapenem potentiation assay (MPC1); format: cell-based, Enterobacter cloacae; conditions: biapenem 1 μg/mL
Outline: as §5

[4] = system: Klebsiella oxytoca KX1019 (KPC-2, OXA-2); experiment: Checkerboard assay, Compound 5 with biapenem; format: cell-based; conditions: KX1019
Text: as §2, §3

[5] = system: Klebsiella pneumoniae KP1008 (KPC-2); experiment: Checkerboard assay, Compound 5 with biapenem; format: cell-based; conditions: KP1008
Text: as §2, §3

[6] = system: Klebsiella pneumoniae KP1088 (KPC-3, SHV-11, TEM-1); experiment: Checkerboard assay, Compound 5 with biapenem; format: cell-based; conditions: KP1088
Text: as §2, §3

[7] = system: strains expressing KPC alone or in combination with additional beta-lactamases; experiment: Checkerboard assay, Compound 5 with biapenem (summary); format: cell-based; conditions: highest concentration of Compound 5 10 mg/L
Text: as §2
The checkerboard (CB) assay is performed in microtiter plates. Biapenem is diluted in the x axis, each column containing a single concentration of antibiotic. BLIs are diluted in the y axis, each row containing an equal concentration of BLI. The result of these manipulations is that each well of the microtiter plate contains a unique combination of concentrations of the two agents. […] Microtiter plates are incubated during 20 h at 35° C. and are read using a microtiter plate reader (Molecular Devices) at 650 nm as well as visual observation using a microtiter plate reading mirror.

[8] = system: Klebsiella pneumonia (KPM1097) NDM-1, KPC-2; experiment: Biapenem MIC at various concentrations of Compound 5; format: cell-based; conditions: KPM1097 NDM-1, KPC-2

O=C(O)C[C@@H]1CC[C@H](NC(=O)Cc2cccs2)B(O)O1 [Compound 5, 2-((3R,6S)-2-hydroxy-3-(2-(thiophen-2-yl)acetamido)-1,2-oxaborinan-6-yl)acetic acid]
MPC8 [1]: Z (Z = MPC8 of greater than 1 μg/mL.) | MPC8 [2]: Z (Z = MPC8 of greater than 1 μg/mL.) | MPC8 [3]: X (X = MPC8 of less than 0.16 μg/mL.) | BPM MPC1 KP1004 KPC-2 (KP1004 KPC-2): X (X = MPC1 of less than 1 μg/mL.) | BPM MPC1 KP1008 KPC-2 (KP1008 KPC-2): X (X = MPC1 of less than 1 μg/mL.) | BPM MPC1 EC1007 KPC-3 (EC1007 KPC-3): X (X = MPC1 of less than 1 μg/mL.) | BPM MPC1 ECL1004 NMC-A (ECL1004 NMC-A): X (X = MPC1 of less than 1 μg/mL.) | Biapenem MIC ([4]; Compound 5 0.31 mg/L): Y (Y = MIC of 0.5 mg/L to 4 mg/L.) | Biapenem MIC ([4]; Compound 5 0.625 mg/L): Y (Y = MIC of 0.5 mg/L to 4 mg/L.) | Biapenem MIC ([4]; Compound 5 5 mg/L): X (X = MIC of less than 0.5 mg/L.) | Biapenem MIC ([4]; Compound 5 10 mg/L): X (X = MIC of less than 0.5 mg/L.) | Biapenem MIC ([4]; Compound 5 […]): Y (Y = MIC of 0.5 mg/L to 4 mg/L.) | Biapenem MIC ([5]; Compound 5 0.31 mg/L): X (X = MIC of less than 0.5 mg/L.) | Biapenem MIC ([5]; Compound 5 0.625 mg/L): X (X = MIC of less than 0.5 mg/L.) | Biapenem MIC ([5]; Compound 5 5 mg/L): NG (NG = No Growth.) | Biapenem MIC ([5]; Compound 5 10 mg/L): NG (NG = No Growth.) | Biapenem MIC ([5]; Compound 5 […]): X (X = MIC of less than 0.5 mg/L.) | Biapenem MIC ([6]; Compound 5 0.31 mg/L): X (X = MIC of less than 0.5 mg/L.) | Biapenem MIC ([6]; Compound 5 0.625 mg/L): X (X = MIC of less than 0.5 mg/L.) | Biapenem MIC ([6]; Compound 5 5 mg/L): X (X = MIC of less than 0.5 mg/L.) | Biapenem MIC ([6]; Compound 5 10 mg/L): X (X = MIC of less than 0.5 mg/L.) | potentiation of biapenem [7]: significantly potentiate biapenem | Biapenem MIC ([8]; Compound 5 0.31 μg/ml): 2 µg/mL | Biapenem MIC ([8]; Compound 5 0.63 μg/ml): 1 µg/mL | Biapenem MIC ([8]; Compound 5 5 μg/ml): 1 µg/mL | Biapenem MIC ([8]; Compound 5 10 μg/ml): 1 µg/mL | Biapenem MIC ([8]; Compound 5 20 μg/ml): 1 µg/mL | Biapenem MIC ([8]; Compound 5 […]): 1 µg/mL
